Results from patent US20240254108A1, “COMPOUND COMPRISING PYRROLIDINE AS LINKER, AND PHARMACEUTICAL COMPOSITION COMPRISING SAME” (BEAD TECH INC., priority 2021, published 2024).

System: factors (genes) causing atopic dermatitis
Experiment: Expression of atopic dermatitis factors (genes) in skin of DNFB-treated mice, real time PCR (Experimental Example 4)
Assay type: in vivo
Conditions: RNA from skin of DNFB-treated female BALB/C mice, compound 100 μM on skin once a day to day 16; FIGS. 9 to 12
Protocol: For real time PCR, RNA was extracted using RNAiso Plus (TAKARA, Japan) and cDNA was synthesized using a cDNA synthesis kit (TAKARA, JAPAN). The polymerization reaction was carried out using the synthesized cDNA and a Sybr green kit (Enzynomics, Korea). […]

NC(=O)[C@H](Cc1c[nH]cn1)NC(=O)[C@H]1CCCN1C(=O)c1cccc(O)c1O [Example 18]
expression of the factors (genes) causing atopic dermatitis: reduce the expression of the factors (genes)
